Test results taken from patent publication US12435062B2, “Amide compounds and uses thereof” (HUTCHISON MEDIPHARMA LIMITED, priority 2020, dated 2025).

Columns and labels:
[1] = molecular target: Recombinant human CSF1R kinase (Homo sapiens (Human), UniProt P07333); type: biochemical; details: Z-LYTE Tyr 1 peptide substrate
[2] = molecular target: CSF1R phosphorylation in THP-1 cells (Homo sapiens (Human), UniProt P07333); experiment: Detection of CSF1R phosphorylation activity at cell level (THP-1, M-CSF stimulated, ELISA); type: cell-based; details: p-CSF1R ELISA, compound 60 min, 300 ng/mL M-CSF 1 min
Protocol: Detection of CSF1R Phosphorylation Activity at Cell Level
THP-1 (ATCC), human acute monocytic leukemia cells. The cells were cultured in an RPMI 1640 medium containing 10% FBS.
(§1) 2. Reagents and instruments
• Human phosphorylation-CSF1R ELISA kit: R&D, #DYC3268-2; • RPMI 1640 culture solution: GIBCO, 910491; • Human M-CSF recombinant cytokine: R&D, 9216-MC-500; • Cell lysis buffer: Cell Signal, 99803S; • 1×PBS buffer (1 L): 8.0 g of NaCl, 0.2 g of KCl, 3.58 g of Na2HPO4-12H2O, 0.24 g of KH2PO4 were dissolved in 1 L of dd H2O, and the pH was adjusted to 7.4; • Blocking solution: PBS buffer containing 1% BSA; • PBST washing liquid: PBS buffer containing 0.05% Tween-20; • Chromogenic substrate: R&D, #DY999; • 2N H2SO4; • Microwell plate reader: Labsystems Multiskan K3: Thermo; Envision: Perkin Elmer; • ELISA plate: Corning, #9018; • Cell culture plate: Facol, #353027. 3. Treatment of cells and preparation of lysis buffer
THP-1 cells were resuspended in RPMI-1640 culture solution containing 2% FBS, and the culture was added to a 96-well plate at a density of 5×10^4/well, 50 μL/well, and cultured in a cell incubator at 5% CO2 and 37° C. overnight; The test compound was diluted with a serum-free RPMI-1640 medium to 3, 1.1, 0.37, 0.12, 0.04, 0.014, 0.005 and 0.002 μM, and the concentration of DMSO was 5%. 5 μL of the diluted compound was added to the 50 μL cell culture system, the culture was cultured in a 5% CO2, 37° C. cell incubator for 60 min, 300 ng/mL of M-CSF was added to the cells, and the mixture was stimulated in the 37° C. cell incubator for 1 min, added 50 μL of cell lysis buffer, and stored in a refrigerator at −80° C.
100 μL/well of the p-CSF1R capture antibody diluted to 0.8 μg/mL with PBS was added to the ELISA plate, and the plate was coated on a shaker at room temperature overnight. The culture was washed with PBST, and then added blocking solution and incubated at room temperature for 2 h. The culture was washed with PBST, added 90 μL of cell lysis buffer, and incubated on a shaker at 25° C. for 2 h. The plate was washed with PBST three times, added 100 μL of anti-p-tyrosine-HRP detection antibody diluted with 0.1% PBS-BSA diluent, and incubated on a shaker at 25° C. for 2 h. The plate was washed with PBST washing liquid, added 100 μL of chromogenic substrate and incubated at room temperature for 10-20 min. The reaction was stopped by adding 50 μL of 2N H2SO4. The optical density signal (450/570 nm) of each well was detected in Labsystems Multiskan K3 or Envision.
wherein • Drug-treated well read-out: indicating the optical density signal of a cell well with the test compound treatment. • Background read-out: indicating the optical density signal of a well without cells but with cell lysis buffer. • Cell well read-out: indicating the optical density signal of a cell well not treated with the compound. 6. Calculation of IC50: obtained by using XL-Fit 5.3 software. 7. Test results

Ba/F3^BCR-FMS-11 cells = experiment: Cell proliferation experiment (Ba/F3^BCR-FMS-11, cckit-8); type: cell-based, mouse; details: Ba/F3^BCR-FMS-11 cell proliferation
Protocol: Cell Proliferation Experiment
Ba/F3^BCR-FMS-11, mouse primary B lymphocytes stably expressing the BCR-FMS fusion gene. The cells were cultured in an RPMI 1640 medium containing 10% FBS.
as §1
• cckit-8 kit: Dojindo, 9 CK04; • Envision: Perkin Elmer; • Cell culture plate: Facol, 9353027. 3. Experimental steps
The BCR-FMS fusion gene was transfected into Ba/F3 cells, and the cell line Ba/F3^BCR-FMS-11 that stably expresses BCR-FMS and grows depending on CSF-1R was screened. Ba/F3^BCR-FMS-11 cell proliferation experiments is completed by using the Cell Counting kit cckit-8 in a 96-well plate. In a 96-well plate, 5000/well of Ba/F3^BCR-FMS-11 cells were inoculated at 100 μL/well. […] 10 μL of the compound dilutions with the above 8 concentrations were added to the culture cell wells. The culture was incubated in a 37° C. and 5% CO2 cell incubator for 72 hours. 10 μL of Cell Counting kit cckit-8 detection reagent was added to each well, and incubated at 37° C. and 5% CO2 in a cell incubator for another 1 h. The optical density absorption value at 450 nm of each well was detected by using Perkin Elmer Envision instrument.
wherein • Drug-treated well read-out: indicating the optical density signal of a cell well with the test compound treatment. • Cell well read-out: indicating the optical density signal of a cell well not treated with the test compound (only 0.5% DMSO). • Background read-out: indicating the optical density signal of a well with the cell medium. 5. Calculation of IC50: obtained by using XL-Fit 5.3 software. 6. Test results

Chain of CSF1R phosphorylation in THP-1 cells (P07333 20-972): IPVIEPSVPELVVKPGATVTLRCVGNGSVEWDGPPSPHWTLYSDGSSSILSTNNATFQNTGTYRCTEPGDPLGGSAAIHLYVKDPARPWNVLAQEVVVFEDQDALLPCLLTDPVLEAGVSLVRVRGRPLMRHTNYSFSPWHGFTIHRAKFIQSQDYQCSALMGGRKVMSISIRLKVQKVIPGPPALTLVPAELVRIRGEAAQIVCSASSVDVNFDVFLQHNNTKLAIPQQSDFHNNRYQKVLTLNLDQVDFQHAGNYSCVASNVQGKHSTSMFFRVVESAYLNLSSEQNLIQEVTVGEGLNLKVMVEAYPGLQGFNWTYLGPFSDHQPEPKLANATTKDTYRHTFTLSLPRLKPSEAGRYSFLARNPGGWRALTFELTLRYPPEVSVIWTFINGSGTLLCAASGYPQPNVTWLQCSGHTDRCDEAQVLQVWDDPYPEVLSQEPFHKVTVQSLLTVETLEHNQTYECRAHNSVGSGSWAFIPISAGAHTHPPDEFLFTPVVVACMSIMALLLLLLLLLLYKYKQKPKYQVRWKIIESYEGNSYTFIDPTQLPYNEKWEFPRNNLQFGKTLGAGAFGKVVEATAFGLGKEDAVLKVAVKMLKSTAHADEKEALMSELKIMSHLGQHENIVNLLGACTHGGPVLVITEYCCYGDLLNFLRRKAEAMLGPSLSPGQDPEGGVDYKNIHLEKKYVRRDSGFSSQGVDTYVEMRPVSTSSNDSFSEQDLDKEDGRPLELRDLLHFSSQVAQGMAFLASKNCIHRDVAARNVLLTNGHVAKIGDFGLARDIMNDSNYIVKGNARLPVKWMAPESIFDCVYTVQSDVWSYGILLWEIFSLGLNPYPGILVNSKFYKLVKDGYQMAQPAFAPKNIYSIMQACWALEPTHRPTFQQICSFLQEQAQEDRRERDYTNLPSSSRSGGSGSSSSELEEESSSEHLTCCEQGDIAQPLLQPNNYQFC
Chain of Recombinant human CSF1R kinase (P07333 20-972): as above

Compound | IC50 [1] | IC50 [2] | IC50 (Ba/F3^BCR-FMS-11 cells; Mus musculus, 72 h) | IC50 (Ba/F3^BCR-FMS-11 cells; 72 hours)
CCn1cc(-c2cc(Oc3ccc(NC(=O)c4cnc(C)n(C)c4=O)nc3)ccn2)cn1 [Compound 38] | 12 nM | 7 nM | 17 nM | –
Cc1ncc(C(=O)Nc2ccc(Oc3ccnc(-c4cnn(C(C)C)c4)c3)cn2)c(=O)n1C [Compound 39] | 33 nM | 12 nM | 63 nM | –
Cc1ncc(C(=O)Nc2ccc(Oc3ccnc(-c4ccncc4)c3)cn2)c(=O)n1C [Compound 41] | 27 nM | 19 nM | 52 nM | –
Cc1ncc(C(=O)Nc2ccc(Oc3ccnc(Nc4ccn(C)n4)c3)cn2)c(=O)n1C [Compound 42] | 5 nM | 6 nM | 6 nM | –
Cc1ncc(C(=O)Nc2ccc(Oc3ccnc(Nc4ccnn4C)c3)cn2)c(=O)n1C [Compound 43] | 6 nM | 6 nM | 5 nM | –
Cn1ccc(Nc2cc(Oc3ccc(NC(=O)c4cnc5n(c4=O)CCC5)nc3)ccn2)n1 [Compound 44] | 7 nM | 3 nM | 6 nM | –
Cn1cc(Nc2cc(Oc3ccc(NC(=O)c4cnc5n(c4=O)CCC5)nc3)ccn2)cn1 [Compound 45] | 9 nM | 3 nM | 9 nM | –
Cn1ccc(Nc2cc(Oc3ccc(NC(=O)c4cccn(C)c4=O)nc3)ccn2)n1 [Compound 46] | 12 nM | 9 nM | 20 nM | –
Cn1nccc1Nc1cc(Oc2ccc(NC(=O)c3cnc4n(c3=O)CCC4)nc2)ccn1 [Compound 47] | 5 nM | 3 nM | 6 nM | –
Cn1nccc1Nc1cc(Oc2ccc(NC(=O)c3cccn(C)c3=O)nc2)ccn1 [Compound 48] | 5 nM | 5 nM | 5 nM | –
Cc1ncc(C(=O)Nc2ccc(Oc3ccnc(-c4cnn(C(F)F)c4)c3)cn2)c(=O)n1C [Compound 49] | 23 nM | 14 nM | 24 nM | –
Cc1ncc(C(=O)Nc2ccc(Oc3ccnc(-c4ccc(F)cc4)c3)cn2)c(=O)n1C [Compound 50] | 78 nM | 54 nM | 112 nM | –
Cc1ncc(C(=O)Nc2ccc(Oc3ccnc(-c4ccccc4)c3)cn2)c(=O)n1C [Compound 51] | 56 nM | 67 nM | 97 nM | –
CCn1cccc(C(=O)Nc2ccc(Oc3ccnc(-c4cnn(C)c4)c3)cn2)c1=O [Compound 55] | 3 nM | 7 nM | 5 nM | –
CC(C)n1cncc(C(=O)Nc2ccc(Oc3ccnc(-c4cnn(C)c4)c3)cn2)c1=O [Compound 56] | 4 nM | 21 nM | 8 nM | –
CC(C)n1cc(Cl)cc(C(=O)Nc2ccc(Oc3ccnc(-c4cnn(C)c4)c3)cn2)c1=O [Compound 57] | 24 nM | 43 nM | 12 nM | –
Cn1cc(-c2cc(Oc3ccc(NC(=O)c4nccn(C)c4=O)nc3)ccn2)cn1 [Compound 58] | 69 nM | 126 nM | 179 nM | –
CC(C)n1nccc(C(=O)Nc2ccc(Oc3ccnc(-c4cnn(C)c4)c3)cn2)c1=O [Compound 60] | 8 nM | 14 nM | 15 nM | –

Compound | IC50 [1] | IC50 [2] | IC50 (Ba/F3^BCR-FMS-11 cells; Mus musculus, 72 h) | IC50 (Ba/F3^BCR-FMS-11 cells; 72 hours)
Cn1cc(-c2cc(Oc3ccc(NC(=O)c4cccn(C(F)F)c4=O)nc3)ccn2)cn1 [Compound 61] | 45 nM | 75 nM | 87 nM | –
Cc1ncc(-c2cc(Oc3ccc(NC(=O)c4cnc(C)n(C)c4=O)nc3)ccn2)s1 [Compound 62] | 20 nM | 9 nM | 32 nM | –
Cc1ncc(C(=O)Nc2ccc(Oc3ccnc(Nc4cnn(C)c4)c3)cn2)c(=O)n1C [Compound 63] | 9 nM | 5 nM | 8 nM | –
Cc1ncc(C(=O)Nc2ccc(Oc3ccnc(-c4ccc5nccn5c4)c3)cn2)c(=O)n1C [Compound 64] | 16 nM | 21 nM | 40 nM | –
Cc1ncc(C(=O)Nc2ccc(Oc3ccnc(Nc4ccccn4)c3)cn2)c(=O)n1C [Compound 65] | 5 nM | 10 nM | 8 nM | –
Cc1ncc(C(=O)Nc2ccc(Oc3ccnc(-c4ccn5ccnc5c4)c3)cn2)c(=O)n1C [Compound 66] | 54 nM | 23 nM | 55 nM | –
Cn1cc(Nc2cc(Oc3ccc(NC(=O)c4cccn(C)c4=O)nc3)ccn2)cn1 [Compound 67] | 33 nM | 9 nM | – | 25 nM
Cc1ncc(C(=O)Nc2ccc(Oc3ccnc(Nc4ccn(C(F)F)n4)c3)cn2)c(=O)n1C [Compound 68] | 7 nM | 6 nM | 12 nM | –
O=C(Nc1ccc(Oc2ccnc(Nc3ccn(C(F)F)n3)c2)cn1)c1cnc2n(c1=O)CCC2 [Compound 69] | 3 nM | 3 nM | 4 nM | –
CC(C)n1cccc(C(=O)Nc2ccc(Oc3ccnc(-c4ccnn4C)c3)cn2)c1=O [Compound 70] | 32 nM | 203 nM | 225 nM | –
CC(C)n1cccc(C(=O)Nc2ccc(Oc3ccnc(-c4ccn(C)n4)c3)cn2)c1=O [Compound 71] | 10 nM | 36 nM | 51 nM | –
Cn1cc(-c2cc(Oc3ccc(NC(=O)c4cc5ccccc5n(C)c4=O)nc3)ccn2)cn1 [Compound 72] | 14 nM | 16 nM | 7 nM | –
CC(C)c1ncc(C(=O)Nc2ccc(Oc3ccnc(-c4cnn(C)c4)c3)cn2)c(=O)n1C [Compound 73] | 11 nM | 31 nM | 17 nM | –
Cc1c(F)cc(C(=O)Nc2ccc(Oc3ccnc(Nc4cnn(C)c4)c3)cn2)c(=O)n1C [Compound 75] | 8 nM | 14 nM | 7 nM | –
Cc1c(F)cc(C(=O)Nc2ccc(Oc3ccnc(Nc4ccnn4C)c3)cn2)c(=O)n1C [Compound 76] | 5 nM | 18 nM | 4 nM | –
Cn1nccc1Nc1cc(Oc2ccc(NC(=O)c3cc(F)cn(C)c3=O)nc2)ccn1 [Compound 77] | 6 nM | 10 nM | 5 nM | –
Cn1cc(Nc2cc(Oc3ccc(NC(=O)c4cc(F)cn(C)c4=O)nc3)ccn2)cn1 [Compound 78] | 15 nM | 11 nM | 11 nM | –
Cn1cc(-c2cc(Oc3ccc(NC(=O)c4cc(F)cn(C)c4=O)nc3)ccn2)cn1 [Compound 80] | 4 nM | 3 nM | 5 nM | –
